# Measured values reported in publication PMC3731299, “Isoniazid Inhibits the Heme-Based Reactivity of Mycobacterium tuberculosis Truncated Hemoglobin N” (PLoS ONE, 2013).
# Where two headings read alike, the source gives them in different places. Marks after values point to notes of the source that are not given here.
# Experiments:
# [1] = tested on: Sperm whale Mb(III); settings: pH 7.0, 25.0°C, cited from earlier work
# [2] = biological target: T1, Mt-trHbN(III) (Mycobacterium tuberculosis, UniProt P9WN25); format: biochemical
# T1 construct: made in house
# [3] = biological target: T1, Mt-trHbN(III); experiment: biochemical; format: binding
# [4] = for average yield of NO2 – / average yield of NO3 –: absence of Mt-trHbN(III), isoniazid and azide
# [5] = biological target: T1, Mt-trHbN(III); experiment: Peroxynitrite isomerization by Mt-trHbN(III) in the absence and presence of isoniazid; format: biochemical
# Procedure: Rapid-mixing experiments were performed using either the SX18.MV stopped-flow apparatus (Applied Photophysics, Salisbury, United Kingdom) or the SFM-20 stopped-flow apparatus (Bio-Logic SAS, Claix, France); the dead time was 1.0 ms.
# (§1) Kinetics of peroxynitrite isomerization by Mt-trHbN(III) in the absence and presence of isoniazid was recorded spectrophotometrically at 302 nm (ε302 nm = 1.705×10^3 M^−1 cm^−1) [60]–[67] in the absence and presence of Mt-trHbN(III) (final concentration 2.5×10^−6 – 1.0×10^−5 M) and isoniazid (final concentration 3.0×10^−5 – 4.0×10^−4 M) by rapid mixing the Mt-trHbN(III) or buffer solution with the peroxynitrite solution (final concentration 2.5×10^−4 M).
# Kinetics of peroxynitrite isomerization by Mt-trHbN(III) in the absence and presence of isoniazid was analyzed in the framework of the minimum reaction mechanism depicted by Scheme D [60]–[67]: [drawing 11] (D)
# Values of the pseudo-first-order rate constant for Mt-trHbN(III)-mediated peroxynitrite isomerization (i.e., l ^obs) were determined in the absence and presence of isoniazid according to Equation 8 [60]–[67]: [drawing 12] (8)
# Values of the second-order rate constant for Mt-trHbN(III)-mediated peroxynitrite isomerization (i.e., l on) and of the first-order rate constant for peroxynitrite isomerization in the absence of Mt-trHbN(III) (i.e., l 0) were determined from the linear dependence of l ^obs values on the Mt-trHbN(III) concentration according to Equation 9 [60]–[67]: [drawing 13] (9)
# The value of K for isoniazid binding to Mt-trHbN(III) was determined from the dependence of l on the drug concentration (i.e., 3.0×10^−5 M ≤ [isoniazid] ≤4.0×10^−4 M) according to Equation 11 [60]–[67]: [drawing 15] (11) where l on ^app is the value of l on in the presence of isoniazid.
# [6] = biological target: T1, Mt-trHbN(III); experiment: biochemical; format: binding; remark: listed apart in the source
# [7] = Peroxynitrite isomerization in the absence of Mt-trHbN(III); settings: pH 7.0, 20.0°C
# Procedure: as §1
# Values of l 0 for peroxynitrite isomerization in the absence of Mt-trHbN(III) were also determined in the absence and presence of isoniazid from the analysis of the time-dependent absorbance decrease at 302 nm according to Equation 10 [60]–[67]: [drawing 14] (10)
# [8] = biological target: T2, Mt-trHbN(II) (Mycobacterium tuberculosis, UniProt P9WN25); experiment: Isoniazid binding to Mt-trHbN(II), stopped-flow, anaerobic
# T2 construct: made in house
# [9] = biological target: T2, Mt-trHbN(II); format: binding
# [10] = biological target: T2, Mt-trHbN(II); experiment: O2 binding to Mt-trHbN(II) in the absence and presence of isoniazid (tonometer method); settings: [isoniazid] = 1.0×10^−2 M
# Procedure: The value of B was determined by the tonometer method adding small volumes of air to the Mt-trHbN(II) solution (1.3×10^−6 M), in the absence and presence of isoniazid ( = 1.0×10^−2 M; B ^obs).
# [11] = biological target: KatG(III); set-up: method as in PMID 17309235; settings: pH 7.2, 25.0°C, cited from earlier work
# [12] = tested on: plasma protein; set-up: method as in ref 89 = [89]; 89 Medical Economics (2004) Drug Information for the Health Care Professional, Thomson PDR, Montvale, p. 1689.; settings: cited from earlier work
# [13] = tested on: Sperm whale Mb(III); settings: pH 7.5, 20.0°C; cited from earlier work
# [14] = Mt-trHbN(III) 5.0×10^−5 M, isoniazid 1.0×10^−2 M, pH 7.0, 20.0°C
# [15] = no Mt-trHbN(III), isoniazid 1.0×10^−2 M, pH 7.0, 20.0°C
# [16] = isoniazid 1.0×10^−4 M, pH 7.0, 20.0°C
# [17] = isoniazid 1.2×10^−4 M, pH 7.0, 20.0°C
# [18] = isoniazid 2.0×10^−4 M, pH 7.0, 20.0°C
# [19] = isoniazid 2.4×10^−4 M, pH 7.0, 20.0°C
# [20] = isoniazid 3.0×10^−5 M, pH 7.0, 20.0°C
# [21] = isoniazid 5.0×10^−5 M, pH 7.0, 20.0°C
# [22] = isoniazid 6.0×10^−5 M, pH 7.0, 20.0°C
compound,measurement,setting,value
[N-]=[N+]=[N-] [azide],h off for azide binding to sperm whale Mb(III),[1],h off = 3.0×10^−1 s^−1 ^d
same,h on for azide binding to sperm whale Mb(III),[1],h on = 4.4×10^3 M^−1 s^−1 ^d
same,Kd,[1]; read-out: H for azide binding to sperm whale Mb(III),50 µM
same,average yield of NO2 –,[2],26%
same,average yield of NO3 –,[2],74%
same,NO2 –,[2]; pH 7,26±4%
same,NO3 –,[2]; pH 7,73±7%
same,NO3 – + NO2 –,[2]; pH 7,99%
same,first-order dissociation rate constant h off,[3]; pH 7,h off = (7.1±0.8)×10^−1 s^−1
same,second-order association rate constant h on,[3]; pH 7,h on = (9.6±1.1)×10^3 M^−1 s^−1
same,Kd,"[3]; pH 7, read-out: H calculated from kinetic parameters (h off/h on)",74 µM
same,Kd,"[3]; read-out: dissociation equilibrium constant H for azide binding to Mt-trHbN(III), pH 7",73 µM
same,average yield of NO2 –,[4],29%
same,average yield of NO3 –,[4],72%
same,NO2 –,[4]; pH 7,27±6%
same,NO3 –,[4]; pH 7,74±5%
same,NO3 – + NO2 –,[4]; pH 7,101%
same,Mt-trHbN(III) catalysis of peroxynitrite isomerization,[5]; [azide] >10×H,does not catalyze the isomerization of peroxynitrite
NNC(=O)c1ccncc1 [isoniazid],Hill coefficient n for isoniazid binding to Mt-trHbN(III),[6]; pH 7,1.01±0.02
same,koff,"[6]; pH 7.0, 20.0°C, Equation 3, read-out: first-order dissociation rate constant k off",0.46 s⁻¹
same,kon,"[6]; pH 7.0, 20.0°C, Equation 3, read-out: second-order association rate constant k on",5300 M⁻¹ s⁻¹
same,Kd,"[6]; pH 7.0, 20.0°C, obtained at equilibrium, Equation 1, read-out: dissociation equilibrium constant K for isoniazid binding to Mt-trHbN(III)",110 µM
same,Kd,"[6]; pH 7.0, 20.0°C, read-out: K calculated from kinetic parameters (k off/k on)",87 µM
same,average yield of NO2 –,[2],26%
same,average yield of NO3 –,[2],74%
same,NO2 –,[2]; [14],25±4%
same,NO3 –,[2]; [14],74±8%
same,NO3 – + NO2 –,[2]; [14],99%
same,NO2 –,[2]; pH 7,26±4%
same,NO3 –,[2]; pH 7,75±8%
same,NO3 – + NO2 –,[2]; pH 7,101%
same,l 0 for peroxynitrite isomerization in the absence of Mt-trHbN(III),[7]; isoniazid 1.0×10^−4 M,(3.2±0.3)×10 ^−1 s^−1
same,l 0 for peroxynitrite isomerization in the absence of Mt-trHbN(III),[7]; isoniazid 1.2×10^−4 M,(2.4±0.3)×10 ^−1 s^−1
same,l 0 for peroxynitrite isomerization in the absence of Mt-trHbN(III),[7]; isoniazid 2.0×10^−4 M,(2.6±0.3) ×10 ^−1 s^−1
same,l 0 for peroxynitrite isomerization in the absence of Mt-trHbN(III),[7]; isoniazid 2.4×10^−4 M,(2.9±0.3)×10 ^−1 s^−1
same,l 0 for peroxynitrite isomerization in the absence of Mt-trHbN(III),[7]; isoniazid 3.0×10^−5 M,(2.7±0.3)×10 ^−1 s^−1
same,l 0 for peroxynitrite isomerization in the absence of Mt-trHbN(III),[7]; isoniazid 4.0×10^−4 M,(2.6±0.3)×10 ^−1 s^−1
same,l 0 for peroxynitrite isomerization in the absence of Mt-trHbN(III),[7]; isoniazid 5.0×10^−5 M,(3.0 ±0.3)×10 ^−1 s^−1
same,l 0 for peroxynitrite isomerization in the absence of Mt-trHbN(III),[7]; isoniazid 6.0×10^−5 M,(2.6±0.3)×10 ^−1 s^−1
same,lower affinity for the ferrous form than for the ferric form,[8]; Mt-trHbN(II) versus Mt-trHbN(III),10 fold
same,Kd,[8]; average of the D values here determined,1200 µM
same,Hill coefficient n for isoniazid binding to Mt-trHbN(II),"[8]; pH 7.0, 20.0°C",1.01±0.01
same,koff,"[8]; pH 7.0, 20.0°C, Equation 14, read-out: first-order dissociation rate constant d off",1.5 s⁻¹
same,kon,"[8]; pH 7.0, 20.0°C, Equation 14, read-out: second-order association rate constant d on",1300 M⁻¹ s⁻¹
same,effect of isoniazid on CO binding to Mt-trHbN(II),[9]; 5.0×10^−3 M isoniazid,grossly impairs CO binding
same,phases of CO binding to Mt-trHbN(II),"[9]; [isoniazid] ≥1.0×10^−2 M, data not shown",only the slow phase is observed
same,mode of inhibition of azide binding to Mt-trHbN(III),[3]; 1.0×10^−3 M ≤ [isoniazid] ≤4.0×10^−3 M,inhibits competitively
same,Kd,"[3]; Equation 7, H obs/H ratio versus [isoniazid] 1.0×10^−3 to 4.0×10^−3 M, pH 7.0, 20.0°C",95 µM
same,mode of inhibition of O2 binding to Mt-trHbN(II),[10],inhibits competitively
same,average yield of NO2 –,[4],29%
same,average yield of NO3 –,[4],72%
same,NO2 –,[4]; [15],31±4%
same,NO3 –,[4]; [15],71±6%
same,NO3 – + NO2 –,[4]; [15],102%
same,NO2 –,[4]; pH 7,28±4%
same,NO3 –,[4]; pH 7,72±5%
same,NO3 – + NO2 –,[4]; pH 7,100%
same,Kd,"[11]; obtained at equilibrium, read-out: K for isoniazid binding to KatG(III)",~1 µM
same,k off for isoniazid binding to KatG(III),[11],k off = 2.0×10^−2 s^−1
same,k on for isoniazid binding to KatG(III),[11],k on = 4.8×10^2 M^−1 s^−1
same,Kd,[11]; read-out: K calculated from kinetic parameters (k off/k on) for KatG(III),42 µM
same,plasma protein binding,[12],very poor
same,Kd,"[5]; Equation 11, dependence of l on [isoniazid] 3.0×10^−5 to 4.0×10^−4 M, pH 7.0, 20.0°C, read-out: K for isoniazid binding to Mt-trHbN(III) from inhibition of peroxynitrite isomerization",130 µM
same,Mt-trHbN(III) catalysis of peroxynitrite isomerization,[5]; [isoniazid] >10×K,does not catalyze the isomerization of peroxynitrite
same,average l 0 value (l 0 unaffected by isoniazid),"[5]; absence and presence of isoniazid, pH 7.0, 20.0°C",0.28 s⁻¹
same,Hill coefficient n for isoniazid binding to Mt-trHbN(III),[5]; from dependence of l on isoniazid concentration,1.00±0.02
same,l 0 for Mt-trHbN(III)-catalyzed peroxynitrite isomerization (y intercept),[5]; [16],(3.1±0.3)×10^−1 s^−1
same,"l on app, second-order rate constant for Mt-trHbN(III)-mediated peroxynitrite isomerization",[5]; [16],(3.3±0.3)×10^4 M^−1 s^−1
same,l 0 for Mt-trHbN(III)-catalyzed peroxynitrite isomerization (y intercept),[5]; [17],(2.6±0.3)×10^−1 s^−1
same,"l on app, second-order rate constant for Mt-trHbN(III)-mediated peroxynitrite isomerization",[5]; [17],(3.2±0.3)×10^4 M^−1 s^−1
same,l 0 for Mt-trHbN(III)-catalyzed peroxynitrite isomerization (y intercept),[5]; [18],(2.5±0.3)×10^−1 s^−1
same,"l on app, second-order rate constant for Mt-trHbN(III)-mediated peroxynitrite isomerization",[5]; [18],(2.7±0.3)×10^4 M^−1 s^−1
same,l 0 for Mt-trHbN(III)-catalyzed peroxynitrite isomerization (y intercept),[5]; [19],(3.0±0.3)×10^−1 s^−1
same,"l on app, second-order rate constant for Mt-trHbN(III)-mediated peroxynitrite isomerization",[5]; [19],(2.4±0.3)×10^4 M^−1 s^−1
same,l 0 for Mt-trHbN(III)-catalyzed peroxynitrite isomerization (y intercept),[5]; [20],(2.9±0.3)×10^−1 s^−1
same,"l on app, second-order rate constant for Mt-trHbN(III)-mediated peroxynitrite isomerization",[5]; [20],(5.1±0.5)×10^4 M^−1 s^−1
same,l 0 for Mt-trHbN(III)-catalyzed peroxynitrite isomerization (y intercept),"[5]; isoniazid 4.0×10^−4 M, pH 7.0, 20.0°C",(2.5±0.3)×10^−1 s^−1
same,l 0 for Mt-trHbN(III)-catalyzed peroxynitrite isomerization (y intercept),[5]; [21],(2.8±0.3)×10^−1 s^−1
same,"l on app, second-order rate constant for Mt-trHbN(III)-mediated peroxynitrite isomerization",[5]; [21],(4.4±0.4)×10^4 M^−1 s^−1
same,l 0 for Mt-trHbN(III)-catalyzed peroxynitrite isomerization (y intercept),[5]; [22],(3.0±0.3)×10^−1 s^−1
same,"l on app, second-order rate constant for Mt-trHbN(III)-mediated peroxynitrite isomerization",[5]; [22],(4.1±0.4)×10^4 M^−1 s^−1
O=NOO [peroxynitrite],l on for peroxynitrite detoxification by sperm whale Mb(III),[13],l on = 1.6×10^4 M^−1 s^−1 ^e
